Results taken from the OPERA property sets (Mansouri et al. 2018).

Details: for log10 BCF / log10 biotransformation half-life (days): fish

Structure (SMILES)	boiling point [°C]	melting point [°C]	further results
CC(C)(C)CC(=O)O	190	6.5	
Clc1ccc2c(c1)Oc1cc(Cl)c(Cl)c(Cl)c1O2		172	log10 Henry constant (atm·m³/mol): -5.12; log10 vapour pressure (mmHg): -8.12
CNCCc1c[nH]c2ccccc12		88	
O=C(C(F)(F)Cl)C(F)(F)Cl	44.5		
N#CCCCCC#N	295	1	log10 vapour pressure (mmHg): -3.17; ready biodegradability: readily biodegradable
Oc1ccc(Cl)cc1Cl	210	45	log10 Koc (L/kg): 2.81; log10 vapour pressure (mmHg): -1.05; ready biodegradability: not readily biodegradable; log10 BCF: 1.53; log10 biotransformation half-life (days): -0.94
NCCCC[C@H](N)C(=O)O			log10 vapour pressure (mmHg): -8.28
O=C(O)c1ccccc1Nc1ccccc1		184	
CCCCCCCCCCCC(=O)OCCOC(=O)CCCCCCCCCCC		56.6	
O=C1NC(=O)C2(CCc3ccccc3C2)N1 (configuration not stated)		268	
O=C1CCCCCC1	178		log10 vapour pressure (mmHg): 0.0969
Cc1ccc(O)c(C(C)C)c1	228	36.5	
C1CCC(C2CCCCC2)CC1	238	4	log10 vapour pressure (mmHg): -0.967; log10 biotransformation half-life (days): 0.38
CC(CN1c2ccccc2Sc2ccccc21)[N+](C)(C)CCO.[Cl-] (configuration not stated)		233	
CC1=Cc2ccccc2C1	208	80	log10 biodegradation half-life (days): 0.477
N#CCC(=O)O		66	ready biodegradability: readily biodegradable
CC(=O)NC1C(O)OC(CO)C(O)C1O (configuration not stated)			ready biodegradability: readily biodegradable
CCCNCC	81		
C=C1C/C(=C/C)C(=O)O[C@@H]2CCN3CC=C(COC(=O)[C@]1(C)O)[C@H]23		218	
CC(C)C(C)(O)C(C)C	156		
ClC(Cl)=C(Cl)C(Cl)=C(Cl)Cl	215	-21	log10 Henry constant (atm·m³/mol): -1.99; log10 vapour pressure (mmHg): -0.658; ready biodegradability: not readily biodegradable; log10 BCF: 3.82; log10 biotransformation half-life (days): 2.07
CN(CCO)c1nc2c(c(=O)n(C)c(=O)n2C)n1C		105	
Oc1cc2ccccc2cc1O		162	
NC(=O)OCC(O)COc1ccc(Cl)cc1 (configuration not stated)		90	
CCc1ccccc1N	210	-46.5	log10 vapour pressure (mmHg): -0.77

Structure (SMILES)	boiling point [°C]	melting point [°C]	further results
OCc1ccc(Cl)cc1	235	75	
O=C(Cl)c1cccc(C(=O)Cl)c1	276	43.5	
Nc1cccc(Oc2ccccc2)c1	315	37	
CCOC(=O)c1cc2ccccc2o1	276	30.5	
CCOC=Nc1ccccc1	214		
O=C(O)C(=O)Nc1ccccc1		150	
CCCC(C)COC(C)=O (configuration not stated)	163		
C#CCCCCCCCC#C		-17	
CCC1Nc2cc(Cl)c(S(N)(=O)=O)cc2S(=O)(=O)N1 (configuration not stated)		270	
C=C(C)C(=O)OC	100	-48	log10 vapour pressure (mmHg): 1.59; ready biodegradability: readily biodegradable
O=c1n(CC2CO2)c(=O)n(CC2CO2)c(=O)n1CC1CO1 (configuration not stated)			ready biodegradability: not readily biodegradable
OCc1ccc(-c2ccccc2)cc1			log10 Koc (L/kg): 2.54
CCCCC(=O)OCC(=O)[C@H]1[C@H](C)C[C@H]2[C@@H]3C[C@H](F)C4=CC(=O)C=C[C@]4(C)[C@@]3(F)[C@@H](O)C[C@@]21C		195	
O=C1OC(=O)[C@H]2[C@@H]1[C@H]1C=C[C@@H]2C1		164	
COc1c(OC)c(OC(C)=O)c2cc(Cl)ccc2c1OC(C)=O		91.5	
O=[N+]([O-])c1cc[n+]([O-])cc1		160	
C[C@@H]1O[C@@H](O[C@@H]2C=C3CC[C@@H]4[C@H](CC[C@]5(C)[C@@H](c6ccc(=O)oc6)CC[C@]45O)[C@@]3(C)CC2)[C@H](O)[C@H](O)[C@H]1O		221	
C[C@@H](O)C(C)(C)O	175		
c1ccc2c(c1)[nH]c1ccccc12	355	246	log10 Henry constant (atm·m³/mol): -6.94; log10 Koc (L/kg): 3.4; log10 vapour pressure (mmHg): -6.12; ready biodegradability: not readily biodegradable; log10 BCF: 2.23; log10 biotransformation half-life (days): 0.06
COc1cc2c(cc1OC)[C@@]13CCN4CC5=CCO[C@H]6CC(=O)N2[C@H]1[C@H]6[C@H]5C[C@H]43		178	
CCCCCCCCCC(=O)OCC	242	-20	
CCCCCCCCCCCCCCCCCCCCCCC	380	47.6	log10 biodegradation half-life (days): 2.16; log10 vapour pressure (mmHg): -4.76; ready biodegradability: readily biodegradable
Cc1c[nH]cn1	263	56	
Clc1cc(Cl)c(Oc2cc(Cl)c(Cl)cc2Cl)c(Cl)c1			log10 biotransformation half-life (days): 2.01
O=C1CN=C(c2ccccc2)c2cc(Cl)ccc2N1CC1CC1		146	

Structure (SMILES)	boiling point [°C]	melting point [°C]	further results
O=C1CCCC1	130	-51.3	log10 Henry constant (atm·m³/mol): -5; log10 Koa: 3.67; log10 vapour pressure (mmHg): 1.06
NCCCC(N)C(=O)O (configuration not stated)		140	
C[C@]12CC[C@H]3[C@@H](CCC4=C(Cl)C(=O)CC[C@@]43C)[C@@H]1CC[C@@H]2O		189	
CC(C(=O)O)c1ccc(C(=O)c2ccccc2)s1 (configuration not stated)		96	
Cl.Cl.NCCc1c[nH]cn1		250	
CC(C)Nc1nc(Cl)nc(NC(C)C)n1		213	log10 Koc (L/kg): 2.4; log10 vapour pressure (mmHg): -6.88; ready biodegradability: not readily biodegradable
CN=C=O	39.5	-45	log10 vapour pressure (mmHg): 2.54
CC1CCC(C)(C(=O)O)C1(C)C (configuration not stated)	254	106	
CC(Cl)C(Cl)(Cl)C=O (configuration not stated)	164		
C[C@]12CC[C@@H](O)C[C@@H]1CC[C@@H]1[C@@H]2[C@H](O)C[C@]2(C)C(=O)CC[C@@H]12		235	
C=CCCCCCCCCC(=O)O	275	24.5	log10 vapour pressure (mmHg): -3.03
CCOP(=S)(Oc1ccc(Cl)cc1Cl)c1ccccc1 (configuration not stated)			ready biodegradability: not readily biodegradable
CCC(C#N)CC	146		
NC(=O)CF		108	
Cc1ccc(S(N)(=O)=O)cc1		138	ready biodegradability: not readily biodegradable
N#Cc1cccc(Br)c1	225		
C=CCCC(=O)O	188	-22.5	
Cc1cc(C2(c3ccc(O)c(C)c3)OC(=O)c3ccccc32)ccc1O		223	
Cc1cccc(C)c1NC(=O)C1CCCCN1C (configuration not stated)		150	
C#CC(O)c1ccccc1 (configuration not stated)		22	
O=C1NCCN1		131	
CC(=O)OC1CCCCC1C(C)(C)C (configuration not stated)		35	
CC(C)(CC(=O)O)CC(=O)O		104	
C=C[C@H]1CNCC[C@H]1CCC(=O)c1ccnc2ccc(OC)cc12		60	
Nc1ccc2c(O)cc(S(=O)(=O)O)cc2c1			ready biodegradability: not readily biodegradable; log10 BCF: 0.38

Structure (SMILES)	boiling point [°C]	melting point [°C]	further results
Cc1c(N)cc([N+](=O)[O-])cc1[N+](=O)[O-]		174	
CC(C)(C)c1cc(O)ccc1O	273	128	
CCCCCCCCCCCCCCCCc1ccccc1	385	27	log10 vapour pressure (mmHg): -5.45
Brc1cc(Br)cc(Br)c1	271	123	log10 vapour pressure (mmHg): -2.82; log10 BCF: 3.7; log10 biotransformation half-life (days): 1.65
c1ccc2c(c1)COC2	192		
CCCCC(CC)COCC(CC)CCCC (configuration not stated)	269		
Clc1cc(-c2c(Cl)cc(Cl)c(Cl)c2Cl)c(Cl)c(Cl)c1Cl			log10 Henry constant (atm·m³/mol): -5
BrC/C=C/CBr	203	53.4	
COc1ccccc1N(C)C	210		
CCC(N)CC	89		
O=C(O)C1=CCCc2ccccc21	306	125	
CC#CCCCC	112		
CCOC(=O)CC(O)(CC(=O)OCC)C(=O)OCC	294		
Nc1c(Br)cc([N+](=O)[O-])cc1[N+](=O)[O-]		154	
ON=C(C1CC1)C1CC1		76.5	
CCCCCCCC(N)=O	239	108	
O=C(Nc1ccc(Cl)cc1)c1cc(Cl)cc(Cl)c1O		142	
N#Cc1ccc(F)cc1	189	34.8	
Nc1ncnc2c1ncn2[C@@H]1O[C@H](CO)[C@@H](OP(=O)(O)O)[C@H]1O		197	
NC(=O)c1c(F)c(F)c(F)c(F)c1F		147	
c1ccc2c(c1)Cc1cc3ccccc3cc1-2		212	log10 vapour pressure (mmHg): -7.26; log10 biotransformation half-life (days): -0.39
CCOC(=O)C(C)C(C)=O (configuration not stated)	187		
C[C@H](N)CCc1ccccc1	223	143	
N#CCCC#N	266	54.5	log10 vapour pressure (mmHg): -2.11
CC(Br)C(Br)Br (configuration not stated)	200		

Structure (SMILES)	boiling point [°C]	melting point [°C]	further results
O=C(CCl)Oc1ccccc1	232	44.5	
COP(=O)(OC)OC	197	-46	log10 Henry constant (atm·m³/mol): -8.14; log10 vapour pressure (mmHg): -0.0706; ready biodegradability: not readily biodegradable; log10 BCF: 0.15
C/C=C(\C)C(=O)OC	139		
CCOC(=O)C1(C(=O)OCC)CC1	216		
CCN(Cc1ccccc1)c1ccccc1	288	35	
CN(C)C(=O)Nc1ccc(Cl)cc1		170	log10 Koc (L/kg): 1.95; log10 vapour pressure (mmHg): -6.3
CC(C)OC(=O)C1(S(=O)(=O)c2ccc([N+](=O)[O-])cc2)CCCCC1		110	
Nc1ccc2ccccc2c1S(=O)(=O)O		180	ready biodegradability: not readily biodegradable; log10 BCF: 0.78
COc1cc2c(c(O)c1OC)CCN(C)[C@H]2C		152	
CN(C)CCCCCCN(C)C	210		ready biodegradability: not readily biodegradable
CCCCCCC[N+](=O)[O-]	194		
CCN(CC)c1ccccc1	216	-38.8	log10 Koc (L/kg): 2.08; log10 vapour pressure (mmHg): -0.866; ready biodegradability: not readily biodegradable; log10 BCF: 2.01
Brc1ccc(I)cc1	252	92	
CCCCCCCCCCSSCCCCCCCCCC			ready biodegradability: not readily biodegradable
CCCCNC(=O)COC(=O)c1ccccc1		69.5	
Cc1cc(C(=O)NNCc2ccccc2)no1		106	
CC1=CCCC1	75.5	-126	
O=c1[nH]c2c(c(=O)n1C1CCCCC1)CCC2		316	log10 Koc (L/kg): 2.14; log10 vapour pressure (mmHg): -8.82
Nc1cccc(C(=O)c2cccc(N)c2)c1		174	
Nc1cc2c(cc1Cl)C(=O)c1ccccc1C2=O		282	
O=C(O)c1ccc(NC(=O)[C@H](Cc2ccc(O)cc2)NC(=O)c2ccccc2)cc1		241	
COC(=O)C1=C(C)NC(C)=C(C(=O)OC)C1c1ccccc1[N+](=O)[O-]		173	
